Measurements: patent US12372525B2 (priority 2013, dated 2025)
“Also recorded” adds a separate entry of the source.

Assays:
[1] = system: influenza virus; settings: cited from earlier work
[2] = system: A/Washington/29/2009(H1N1pdm) H275Y; settings: Oselt resistance strain; cited from earlier work
[3] = system: A/Georgia/20/2006 (H1N1) H274Y; settings: Oselt resistance strain; cited from earlier work
[4] = system: A/Massachusetts/5/2007 (H1N1) H274Y; settings: Oselt resistance strain; cited from earlier work
[5] = system: A/Texas/12/2007 (H3N2) E119V; settings: Oselt resistance strain; cited from earlier work
[6] = system: B/Hong Kong/36/2005 B) R371K; settings: Oselt + Zana resistance strain; cited from earlier work
[7] = system: A/Mississippi/03/2001 A(H1N1) H275Y neuraminidase; settings: stated character of the test strain; cited from earlier work
[8] = system: A/Mississippi/03/2001 A(H1N1) H275Y neuraminidase; type: biochemical, Influenza A
[9] = system: A/Montana/8/2007 (H3N2) D151V/D; settings: Zana resistance strain; cited from earlier work

| SMILES | decrease in susceptibility of isolated virus variants [1] [fold] | IC50 [2] [nM] | IC50 [3] [nM] | IC50 [4] [nM] | IC50 [5] [nM] | IC50 [6] [nM] | known sensitivity of the test strain neuraminidase to the drug [7] | relative sensitivity of test strain in dual enzyme assay [8] | IC50 [9] [nM] |
| --- | --- | --- | --- | --- | --- | --- | --- | --- | --- |
| CCOC(=O)C1=C[C@@H](OC(CC)CC)[C@H](NC(C)=O)[C@@H](N)C1 [Oseltamivir] | > 10 | 1460 | 383 | 258 | 9.18 | 1780 | resistant | – | – |
| CC(=O)N[C@H]1[C@H]([C@H](O)[C@H](O)CO)OC(C(=O)O)=C[C@@H]1N=C(N)N [Zanamivir] | – | – | – | – | – | 154 | sensitive | more sensitive to Zanamivir than Oseltamivir; also recorded: Relenza outperforms Tamiflu | 192 |
